From ChEMBL document CHEMBL1201862, “PubChem BioAssay data set” (2004) come the findings set out here.

Molecules are shown by their SMILES.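 Five compound concentrations were applied to cells in 96-well plates for 48 hours; endpoints were derived by simple linear interpolation of the resulting dose-response curve. GI50 is the concentration that inhibits growth by half.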 Active and inactive are the calls of the source. No stated cut-off is given here; in the data, active = GI50 up to about 1.1 µM and inactive = higher. Bounds are passed on as bounds.

What all share (experiment): NCI anticancer screen, dose series, 48 h
The test system of assay [1] is XF498.
Assay [2] has as its system DLD-1.
Assay [3] has as its system SNB-78.
Assay [4] concerns KM-20L2.
Assay [5] concerns HOP-18.
The test system of assay [6] is DMS-273.
Assay [7] deals with LXFL 529.
Assay [8] has as its system RXF 631.
In assay [9] the test system is M19-MEL.

As to `C=C(CN(C)C)C(=O)c1ccc(OC2OC(COC(C)=O)C(OC(C)=O)C(OC(C)=O)C2OC(C)=O)cc1` (stereo not drawn), the GI50 in [1] is 1.69 µM (inactive); in assay [2], 0.912 µM (active); in assay [3], 8.93 µM (inactive); in [4] it was 17.4 µM (inactive); in [5], 3.54 µM (inactive); in [6], 6.85 µM (inactive). The GI50 in assay [7] was 1.52 µM (inactive); in assay [8], 14.3 µM (inactive).

Take `Cc1ccccc1C(=O)Oc1ccc(OCc2ccccc2)cc1`: the GI50 in assay [1] was > 100 µM (inactive); in assay [2] it was > 100 µM (inactive); in assay [3], > 100 µM (inactive); in assay [4], 75.5 µM (inactive); in assay [5] it was > 100 µM (inactive); in assay [9], > 100 µM (inactive). Besides, the GI50 was > 100 µM (inactive) in assay [6] and 87.9 µM (inactive) in [7].

Turning to `c1ccc(C2SCc3nc4ccccc4n32)cc1` (stereo not drawn), the GI50 in assay [1] was 20.7 µM (inactive); in assay [2], 49.5 µM (inactive); in assay [3], 95.5 µM (inactive); in assay [4], 47.6 µM (inactive); in assay [5], 4.26 µM (inactive); in assay [9], 41.7 µM (inactive). Moreover, the GI50 in [6] is 33.7 µM (inactive).

As for `COc1ccc(/C=C2\CCC(CN3CCOCC3)C2=O)cc1` (stereo not drawn), the GI50 was 3.56 µM (inactive) in assay [1]; 2.79 µM (inactive) in [2]; 4.86 µM (inactive) in [3]; 6.3 µM (inactive) in assay [4]; 5.78 µM (inactive) in [5]; 4.31 µM (inactive) in assay [9]. Moreover, the GI50 in assay [7] was 1.59 µM (inactive); in assay [8], 6.52 µM (inactive).

Take `O=C1C=C(N2CCCC2)C=C(N2CCCC2)C1`: the GI50 in assay [1] is > 100 µM (inactive); in [2], > 100 µM (inactive); in [3] it was > 100 µM (inactive); in assay [4], > 100 µM (inactive); in [5], > 100 µM (inactive); in assay [9] it was 28.1 µM (inactive). Further, the GI50 in assay [6] and in assay [7] was > 100 µM (inactive) each time.

For the molecule `N#CCCN(CCC#N)c1ccc(/C=C(/NC(=O)c2cc([N+](=O)[O-])ccc2Cl)C(=O)NN)cc1`, the GI50 in assay [2], in assay [3], in [4], in [5], in assay [9] and in assay [6] was > 100 µM (inactive) in each case. Moreover, the GI50 in assay [7] was 54 µM (inactive).

Take `Cc1cccc(NC2=NC(=O)C(CC(=O)Nc3cccc(C)c3C)S2)c1` (stereo not drawn): the GI50 in assay [1], in assay [2], in assay [3], in [4], in [9] and in [7] was > 100 µM (inactive) throughout.

Consider `Oc1ccccc1/C=N/Cc1ccco1`, for which the GI50 in assay [1], in [2], in [3], in assay [4], in assay [5] and in assay [9] was > 100 µM (inactive) in each case. For the same molecule, the GI50 in assay [7] and in assay [8] was > 100 µM (inactive) throughout.

As to `Nc1ccc2ncc(Nc3ccc(F)cc3)nc2c1`, the GI50 was > 100 µM (inactive) in [1]; > 100 µM (inactive) in [2]; > 100 µM (inactive) in assay [3]; 94.6 µM (inactive) in assay [9]; > 100 µM (inactive) in [6].

For the molecule `Clc1ccc(-c2c(C3=NCCN3)nnn2-c2ccccc2)cc1`, the GI50 was > 100 µM (inactive) in assay [1]; > 100 µM (inactive) in assay [2]; > 100 µM (inactive) in assay [3]; 85.3 µM (inactive) in [4]; > 100 µM (inactive) in [5]; > 100 µM (inactive) in assay [9]. Besides, the GI50 in assay [6] and in assay [7] was > 100 µM (inactive) throughout.

As to `Cc1nc2c(sc(=S)n2-c2ccccc2)c2nc3ccccc3n12`, the GI50 in [2], in assay [3], in assay [5], in assay [9], in [6] and in [7] was > 100 µM (inactive) each time. Also, the GI50 in [8] is > 100 µM (inactive).

On to `CN(C)CCNC(=O)C1COc2cc(-c3cc(=O)c4ccccc4o3)ccc2O1` (stereo not drawn), for which the GI50 in [2] was 27.3 µM (inactive); in [3] it was 24.7 µM (inactive); in [4] it was 22 µM (inactive); in [5], 24.4 µM (inactive); in [9] it was > 100 µM (inactive); in assay [6], 18.5 µM (inactive).

Regarding `O=C(Nc1cccc2ccccc12)Oc1ccccc1C1CCCCC1`, the GI50 in assay [2] was 15.2 µM (inactive); in assay [3], 23.4 µM (inactive); in assay [4], 20.9 µM (inactive); in assay [5], 16.3 µM (inactive); in assay [9], 22.3 µM (inactive); in [6], 21.2 µM (inactive). Moreover, the GI50 was 18.3 µM (inactive) in [7] and 19.5 µM (inactive) in assay [8].

With `NC(=O)C12CC3CC(CC(F)(C3)C1)C2`, the GI50 in assay [1], in [2], in [3], in assay [4], in [9] and in assay [6] was > 100 µM (inactive) in each case. For the same molecule, in [7], the GI50 is > 100 µM (inactive).

With `CCOC(=O)C1=C(O)C(=O)c2ccoc2C1=O`, the GI50 in [1], in assay [3], in assay [4], in assay [5], in assay [9] and in [6] was > 100 µM (inactive) each time.

Consider `C=CCC1(CN(C)C)CC/C(=C\c2ccc(OC)cc2)C1=O` (stereo not drawn), for which the GI50 in assay [2] was 34.2 µM (inactive); in assay [3], > 100 µM (inactive); in [4] it was 46.2 µM (inactive); in assay [5], > 100 µM (inactive); in assay [9], 59.8 µM (inactive); in assay [6], > 100 µM (inactive). Further, the GI50 in assay [7] was 47.2 µM (inactive); in [8], 25 µM (inactive).

Take `Cc1ccc(S(=O)(=O)C2=c3nc4ccccc4cc3=C3C(=O)c4ccccc4C(=O)C32)cc1` (stereo not drawn): the GI50 in assay [1], in assay [2], in [4], in assay [9], in [6] and in [7] was > 100 µM (inactive) each time.

Take `CC(=O)OCC1OC(n2c(=S)n(-c3ccccc3)c(=O)c3cc(Br)ccc32)C(OC(C)=O)C1OC(C)=O` (stereo not drawn): the GI50 in assay [1] was 71.8 µM (inactive); in assay [2], > 100 µM (inactive); in assay [3], > 100 µM (inactive); in [4] it was > 100 µM (inactive); in assay [5], > 100 µM (inactive); in assay [9], > 100 µM (inactive). The GI50 in [6] was > 100 µM (inactive); in assay [7] it was 65.3 µM (inactive).

For `COc1cc2ccc(/C(C)=N/OC(C)=O)cc2cc1OC`, the GI50 in assay [1] was 83.6 µM (inactive); in [3], 92.9 µM (inactive); in assay [4], > 100 µM (inactive); in [5] it was 58.2 µM (inactive); in [9], > 100 µM (inactive); in [6] it was 73.8 µM (inactive). In addition, the figures for the GI50 in assay [7] and in assay [8] were 95.9 µM (inactive) and 97.7 µM (inactive), respectively.

As for `C=CCC1C(=O)C(C(=O)OC)N2CCc3c([nH]c4ccccc34)C12` (stereo not drawn), the GI50 in assay [2], in assay [4], in assay [9] and in assay [7] was > 100 µM (inactive) each time.

As for `CC(=O)Oc1c(-c2ccccc2)[nH]c2cc([N+](=O)[O-])c(/C(Cl)=C/c3ccccc3)cc12`, the GI50 in assay [1] is 4.36 µM (inactive); in assay [2], 3.71 µM (inactive); in [3], 3.85 µM (inactive); in assay [4] it was 3.41 µM (inactive); in assay [9], 3.31 µM (inactive); in assay [7], 3.9 µM (inactive).

As for `O=C(CC/C(CC(=O)c1ccc(Cl)cc1)=N/O)Nc1ccc(Cl)c(Cl)c1`, the GI50 in assay [1] was > 100 µM (inactive); in assay [2], > 100 µM (inactive); in [3], > 100 µM (inactive); in assay [4], 36.2 µM (inactive); in assay [5], > 100 µM (inactive); in assay [9] it was > 100 µM (inactive). Besides, the values for the GI50 in [6], in assay [7] and in assay [8] were > 100 µM (inactive), 80.7 µM (inactive) and > 100 µM (inactive), respectively.

Regarding `COc1ccc(CC(=O)NCCc2ccc(OC)c(OC)c2)cc1Br`, the GI50 was 38.7 µM (inactive) in assay [1]; > 100 µM (inactive) in [2]; > 100 µM (inactive) in assay [4]; > 100 µM (inactive) in [6]; > 100 µM (inactive) in assay [7].

As to `Nc1nc(N)c(CCCCc2ccccc2)c(/C=C/c2ccc([N+](=O)[O-])cc2)n1`, the GI50 is 1.84 µM (inactive) in assay [1]; 2.39 µM (inactive) in assay [2]; 2.59 µM (inactive) in [3]; 2.49 µM (inactive) in assay [4]; 3.36 µM (inactive) in assay [9]; 3.21 µM (inactive) in assay [7].

Turning to `O=C1OC(c2ccccc2)(c2ccccc2)CC1CN1CCOCC1` (stereo not drawn), the GI50 in assay [2] was 17.1 µM (inactive); in assay [4] it was 18.2 µM (inactive); in [5], 14.6 µM (inactive); in assay [9], 15.9 µM (inactive); in assay [6] it was 38.2 µM (inactive); in assay [7] it was 13.9 µM (inactive). Besides, the GI50 in assay [8] is 18.5 µM (inactive).

As to `Nc1ccc(S(=O)(=O)Nc2ccc(Nc3c4ccccc4nc4ccccc34)cc2)cc1`, the GI50 is 3.61 µM (inactive) in assay [1]; 1.06 µM (active) in assay [2]; 3.78 µM (inactive) in assay [3]; 0.215 µM (active) in assay [4]; 0.43 µM (active) in assay [5]; 0.115 µM (active) in assay [9]. Moreover, the GI50 was < 0.01 µM (active) in [6], 3.91 µM (inactive) in assay [7] and 0.284 µM (active) in [8].
